Reference: patent US8222416B2, “Azaindole glucokinase activators” (Hoffmann-La Roche Inc., priority 2009, dated 2012)

Target: T1, Recombinant human liver GK1 (GST-GK) (Homo sapiens, UniProt P35557)
T1 construct: made in house; host or cells: E. coli
T1 sequence (P35557 1-466 isoform P35557-2): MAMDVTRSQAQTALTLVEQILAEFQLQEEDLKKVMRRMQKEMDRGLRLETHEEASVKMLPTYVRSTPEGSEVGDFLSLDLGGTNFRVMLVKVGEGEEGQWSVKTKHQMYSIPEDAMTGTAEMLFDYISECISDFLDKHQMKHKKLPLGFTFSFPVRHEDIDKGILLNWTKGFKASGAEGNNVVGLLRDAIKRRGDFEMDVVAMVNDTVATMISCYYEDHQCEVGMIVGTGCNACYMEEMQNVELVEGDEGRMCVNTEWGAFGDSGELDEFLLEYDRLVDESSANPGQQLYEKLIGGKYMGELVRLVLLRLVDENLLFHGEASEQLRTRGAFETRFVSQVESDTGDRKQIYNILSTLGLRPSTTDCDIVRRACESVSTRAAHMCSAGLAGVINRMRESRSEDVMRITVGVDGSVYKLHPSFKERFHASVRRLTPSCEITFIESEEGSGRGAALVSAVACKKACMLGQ
Assay: In vitro glucokinase activity assay (G6PDH-coupled, NADH, OD340)
Assay type: biochemical
Details: concentration of activator that produced a 50% increase in the activity of GK; 5 mM D-glucose, 30° C.
Description: Glucokinase In Vitro Assay Protocol: Glucokinase (GK) was assayed by coupling the production of glucose-6-phosphate to the generation of NADH with glucose-6-phosphate dehydrogenase (G6PDH, 0.75-1 kunits/mg; Boehringer Mannheim, Indianapolis, Ind.) from Leuconostoc mesenteroides as the coupling enzyme (Scheme 2).
Recombinant human liver GK1 was expressed in E. coli as a glutathione S-transferase fusion protein (GST-GK) [Liang et al, 1995] and was purified by chromatography over a glutathione-Sepharose 4B affinity column using the procedure provided by the manufacturer (Amersham Pharmacia Biotech, Piscataway, N.J.).
The assay was conducted at 30° C. in a flat bottom 96-well tissue culture plate from Costar (Cambridge, Mass.) with a final incubation volume of 120 μL. The incubation reaction contained the following: 25 mM Hepes buffer (pH 7.1), 25 mM KCl, 5 mM D-glucose, 1 mM ATP, 1.8 mM NAD, 2 mM MgCl2, 1 μM sorbitol-6-phosphate, 1 mM dithiothreitol, test drug or 10% dimethylsulfoxide, ˜7 units/ml G6PDH, and GK (see below). All organic reagents were >98% pure and were from Boehringer Mannheim with the exceptions of D-glucose and Hepes which were from Sigma Chemical Co, St Louis, Mo. Test compounds were dissolved in dimethylsulfoxide and were added to the incubation reaction minus GST-GK in a volume of 12 μL to yield a final dimethylsulfoxide concentration of 10%. This mix was pre-incubated in the temperature controlled chamber of a SPECTRAmax 250 microplate spectrophotometer (Molecular Devices Corporation, Sunnyvale, Calif.) for 10 minutes to allow temperature equilibrium and then the reaction was started by the addition of 20 μL GST-GK.
After addition of enzyme, the increase in optical density (OD) at 340 nm was monitored spectrophotometrically to determine the rate of change (OD340 per min). The GK activity (OD340/min) in control wells (10% dimethylsulfoxide minus GK activators) was compared with the activity in wells containing test GK activators, and the concentration of activator that produced a 50% increase in the activity of GK, i.e., the SC1.5, was calculated.

Compound	SC1.5 [µM]
CC(O)c1cnc2[nH]c(C(CC3CCCC3)c3ccc(S(C)(=O)=O)cc3)cc2c1 (single isomer, unassigned) [Example 9, 1-{2-[2-Cyclopentyl-1-(4-methanesulfonyl-phenyl)-ethyl]-1H-pyrrolo[2,3-b]pyridin-5-yl}-ethanol]	10.9
COc1cnc2[nH]c([C@H](CC3CCCCC3)c3ccc(S(C)(=O)=O)cc3)cc2c1 (single isomer, unassigned) [Example 10]	0.218
CN(C)C(=O)COc1cnc2[nH]c([C@H](CC3CCCC3)c3ccc(S(C)(=O)=O)cc3)cc2c1 (single isomer, unassigned) [Example 14]	0.742
COc1cnc2[nH]c(C(CC3CCCO3)c3ccc(S(C)(=O)=O)cc3)cc2c1 (single isomer, unassigned) [Example 23, 2-[1-(4-Methanesulfonyl-phenyl)-2-(tetrahydro-furan-2-yl)-ethyl]-5-methoxy-1H-pyrrolo[2,3-b]pyridine]	21.9
COc1cnc2[nH]c(C(CC3CCCO3)c3ccc(S(C)(=O)=O)cc3)cc2c1 (single isomer, unassigned) [Example 24, 2-[1-(4-Methanesulfonyl-phenyl)-2-(tetrahydro-furan-2-yl)-ethyl]-5-methoxy-1H-pyrrolo[2,3-b]pyridine]	2.0
COc1cnc2[nH]c(C(CC3CCCO3)c3ccc(S(C)(=O)=O)cc3)cc2c1 (single isomer, unassigned) [Example 25, 2-[1-(4-Methanesulfonyl-phenyl)-2-(tetrahydro-furan-2-yl)-ethyl]-5-methoxy-1H-pyrrolo[2,3-b]pyridine]	22.0
CC(C)(CO)Oc1cnc2[nH]c([C@H](CC3CCCC3)c3ccc(S(C)(=O)=O)cc3)cc2c1 (single isomer, unassigned) [Example 29]	1.1
CS(=O)(=O)c1ccc(C(O)(CC2CCCC2)c2cc3cc(F)cnc3[nH]2)cc1 (single isomer, unassigned) [Example 49, 2-Cyclopentyl-1-(5-fluoro-1H-pyrrolo[2,3-b]pyridin-2-yl)-1-(4-methanesulfonyl-phenyl)-ethanol]	0.354
N#Cc1ccc([C@@H](CC2CCCC2)c2cc3cc(F)cnc3[nH]2)cc1 (single isomer, unassigned) [Example 51]	0.343
CS(=O)(=O)c1ccc([C@@H](CC2CCCC2)c2cc3cc(C#N)cnc3[nH]2)cc1 (single isomer, unassigned) [Example 53]	0.144
COC(=O)c1cnc2[nH]c([C@H](CC3CCCC3)c3ccc(S(C)(=O)=O)cc3)cc2c1 (single isomer, unassigned) [Example 55]	0.512
CS(=O)(=O)c1ccc([C@@H](CC2CCCC2)c2cc3cc(C(=O)O)cnc3[nH]2)cc1 (single isomer, unassigned) [Example 56]	3.4
CC(C)(O)c1ccc([C@@H](CC2CCCC2)c2cc3cc(C(=O)O)cnc3[nH]2)cc1F (single isomer, unassigned) [Example 58]	9.5
CS(=O)(=O)c1ccc(C(CC2CCC(=O)C2)c2cc3cccnc3[nH]2)cc1 (single isomer, unassigned) [Example 78, 3-[2-(4-Methanesulfonyl-phenyl)-2-(1H-pyrrolo[2,3-b]pyridin-2-yl)-ethyl]-cyclopentanone]	11.9
CS(=O)(=O)c1ccc(C(CC2CCC(=O)C2)c2cc3cccnc3[nH]2)cc1 (single isomer, unassigned) [Example 79, 3-[2-(4-Methanesulfonyl-phenyl)-2-(1H-pyrrolo[2,3-b]pyridin-2-yl)-ethyl]-cyclopentanone]	0.201
CCC(O)(CC)c1ccc([C@@H](CC2CCCC2)c2cc3cccnc3[nH]2)cc1 (single isomer, unassigned) [Example 84]	5.9

Compound	SC1.5 [µM]
CS(=O)(=O)c1ccc(C(O)(CC2CCCC2)c2cc3cccnc3[nH]2)cc1 (single isomer, unassigned) [Example 86, 2-Cyclopentyl-1-(4-methanesulfonyl-phenyl)-1-(1H-pyrrolo[2,3-b]pyridin-2-yl)-ethanol]	0.857
CCOC(CC1CCCC1)(c1ccc(S(C)(=O)=O)cc1)c1cc2cccnc2[nH]1 (single isomer, unassigned) [Example 87, 2-[2-Cyclopentyl-1-ethoxy-1-(4-methanesulfonyl-phenyl)-ethyl]-1H-pyrrolo[2,3-b]pyridine]	11.0
CC(C)(O)c1ccc([C@@H](CC2CCCC2)c2cc3cccnc3[nH]2)cc1F (single isomer, unassigned) [Example 96]	0.144
CC(C)(O)c1ccc([C@@H](CC2CCOCC2)c2cc3cc(F)cnc3[nH]2)cc1F (single isomer, unassigned) [Example 98]	0.67
CC(C)C[C@H](c1ccc(S(C)(=O)=O)cc1)c1cc2cc(F)cnc2[nH]1 (single isomer, unassigned) [Example 100]	0.201
CC(C)C[C@H](c1ccc(S(=O)(=O)CCO)cc1)c1cc2cc(F)cnc2[nH]1 (single isomer, unassigned) [Example 102]	0.427
CC(C)(O)c1ccc([C@@H](CC2CCCC2)c2cc3cc(F)cnc3[nH]2)cc1F (single isomer, unassigned) [Example 104]	0.081
CC(C)C[C@H](c1ccc(C(C)(C)O)c(F)c1)c1cc2cc(F)cnc2[nH]1 (single isomer, unassigned) [Example 106]	0.189
CS(=O)(=O)c1ccc([C@@H](CC2CCCC2)c2cc3cc(C(F)(F)F)cnc3[nH]2)cc1 (single isomer, unassigned) [Example 127]	0.607
Cc1cnc2[nH]c([C@H](CC3CCCC3)c3ccc(C(C)(C)O)c(F)c3)cc2c1 (single isomer, unassigned) [Example 129]	2.6
CC(C)CC(c1ccc(S(C)(=O)=O)cc1)c1cc2cc(C(=O)NC(C)C)cnc2[nH]1 (stereo not shown) [Example 1, 2-[1-(4-Methanesulfonyl-phenyl)-3-methyl-butyl]-1H-pyrrolo[2,3-b]pyridin-5-carboxylic acid isopropylamide]	19.0
CNC(=O)c1cnc2[nH]c(C(CC(C)C)c3ccc(S(C)(=O)=O)cc3)cc2c1 (stereo not shown) [Example 2, 2-[1-(4-Methanesulfonyl-phenyl)-3-methyl-butyl]-1H-pyrrolo[2,3-b]pyridin-5-carboxylic acid methylamide]	11.3
CS(=O)(=O)c1ccc(C(CC2CCCC2)c2cc3cc(C(=O)N4CCOCC4)cnc3[nH]2)cc1 (stereo not shown) [Example 4, {2-[2-Cyclopentyl-1-(4-methanesulfonyl-phenyl)-ethyl]-1H-pyrrolo[2,3-b]pyridin-5-yl}-morpholin-4-yl-methanone]	10.5
CNC(=O)c1cnc2[nH]c(C(CC3CCCC3)c3ccc(S(C)(=O)=O)cc3)cc2c1 (stereo not shown) [Example 5, 2-[2-Cyclopentyl-1-(4-methanesulfonyl-phenyl)-ethyl]-1H-pyrrolo[2,3-b]pyridin-5-carboxylic acid methylamide]	1.9
CNC(=O)c1cnc2[nH]c([C@H](CC3CCCC3)c3ccc(S(C)(=O)=O)cc3)cc2c1 [Example 6, 2-[2-Cyclopentyl-1(R)-(4-methanesulfonyl-phenyl)-ethyl]-1H-pyrrolo[2,3-b]pyridin-5-carboxylic acid methylamide]	1.0
